Patent US9790178B2, “Pyrrolidinyl urea, thiourea, guanidine and cyanoguanidine compounds as TrkA kinase inhibitors” (Array BioPharma Inc., priority 2012, dated 2017)

Experiments:
PKCdelta = target: T1, PKCdelta (Homo sapiens, UniProt Q05655); assay: KinaseProfiler off-target kinase profiling; format: biochemical; conditions: 10 μM, ATP near Km
T1 construct: purchased Millipore, Inc. (KinaseProfiler service)
Description: (§1) A representative compound of the invention (Example 20) was tested for off-target kinase activity at a concentration of 10 μM by Millipore, Inc. in their KinaseProfiler™ service against all the kinases available in their full kinase panel. The compound was run in duplicate at a concentration of ATP near the Km for each individual kinase according to Millipore's specifications. The results are shown in Table B. Data are reported as percent of control (POC) and are the average of the two replicates.

MST2 = target: T2, MST2 (Homo sapiens, UniProt Q13188); assay: KinaseProfiler off-target kinase profiling; format: biochemical; conditions: 10 μM, ATP near Km
T2 construct: purchased Millipore, Inc. (KinaseProfiler service)
Description: as §1

PRKG1alpha = target: T3, PRKG1alpha (Homo sapiens, UniProt Q13976); assay: KinaseProfiler off-target kinase profiling; format: biochemical; conditions: 10 μM, ATP near Km
T3 construct: purchased Millipore (KinaseProfiler service)
Description: as §1

MST1 = target: T4, MST1 (Homo sapiens, UniProt Q13043); assay: KinaseProfiler off-target kinase profiling; format: biochemical; conditions: 10 μM, ATP near Km
T4 construct: purchased Millipore, Inc. (KinaseProfiler service)
Description: as §1

VRK2 = target: T5, VRK2 (Homo sapiens, UniProt Q86Y07); assay: KinaseProfiler off-target kinase profiling; format: biochemical; conditions: 10 μM, ATP near Km
T5 construct: purchased Millipore, Inc. (KinaseProfiler service)
Description: as §1

CK2alpha2 = target: T6, CK2alpha2 (Homo sapiens, UniProt P19784); assay: KinaseProfiler off-target kinase profiling; format: biochemical; conditions: 10 μM, ATP near Km
T6 construct: purchased Millipore, Inc. (KinaseProfiler service)
Description: as §1

Yes = target: T7, Yes (Homo sapiens, UniProt P07947); assay: KinaseProfiler off-target kinase profiling; format: biochemical; conditions: 10 μM, ATP near Km
T7 construct: purchased Millipore, Inc. (KinaseProfiler service)
Description: as §1

GRK6 = target: T8, GRK6 (Homo sapiens, UniProt P43250); assay: KinaseProfiler off-target kinase profiling; format: biochemical; conditions: 10 μM, ATP near Km
T8 construct: purchased Millipore, Inc. (KinaseProfiler service)
Description: as §1

JAK3 = target: T9, JAK3 (Homo sapiens, UniProt P52333); assay: KinaseProfiler off-target kinase profiling; format: biochemical; conditions: 10 μM, ATP near Km
T9 construct: purchased Millipore, Inc. (KinaseProfiler service)
Description: as §1

ARK5 = target: T10, ARK5 (Homo sapiens, UniProt O60285); assay: KinaseProfiler off-target kinase profiling; format: biochemical; conditions: 10 μM, ATP near Km
T10 construct: purchased Millipore, Inc. (KinaseProfiler service)
Description: as §1

Pim-2 = target: T11, Pim-2 (Homo sapiens, UniProt Q9P1W9); assay: KinaseProfiler off-target kinase profiling; format: biochemical; conditions: 10 μM, ATP near Km
T11 construct: purchased Millipore, Inc. (KinaseProfiler service)
Description: as §1

JNK2alpha2 = target: T12, JNK2alpha2 (Homo sapiens, UniProt P45984); assay: KinaseProfiler off-target kinase profiling; format: biochemical; conditions: 10 μM, ATP near Km
T12 construct: purchased Millipore, Inc. (KinaseProfiler service)
Description: as §1

CAMK2g = target: T13, CAMK2g (Homo sapiens, UniProt Q13555); assay: KinaseProfiler off-target kinase profiling; format: biochemical; conditions: 10 μM, ATP near Km
T13 construct: purchased Millipore, Inc. (KinaseProfiler service)
Description: as §1

FGFR1 = target: T14, FGFR1 (Homo sapiens, UniProt P11362); assay: KinaseProfiler off-target kinase profiling; format: biochemical; conditions: 10 μM, ATP near Km
T14 construct: purchased Millipore, Inc. (KinaseProfiler service)
Description: as §1

MAPKAP-K5 = target: T15, MAPKAP-K5 (Homo sapiens, UniProt Q8IW41); assay: KinaseProfiler off-target kinase profiling; format: biochemical; conditions: 10 μM, ATP near Km
T15 construct: purchased Millipore, Inc. (KinaseProfiler service)
Description: as §1

CK1delta = target: T16, CK1delta (Homo sapiens, UniProt P48730); assay: KinaseProfiler off-target kinase profiling; format: biochemical; conditions: 10 μM, ATP near Km
T16 construct: purchased Millipore, Inc. (KinaseProfiler service)
Description: as §1

STK33 = target: T17, STK33 (Homo sapiens, UniProt Q9BYT3); assay: KinaseProfiler off-target kinase profiling; format: biochemical; conditions: 10 μM, ATP near Km
T17 construct: purchased Millipore, Inc. (KinaseProfiler service)
Description: as §1

PKCeta = target: T18, PKCeta (Homo sapiens, UniProt P24723); assay: KinaseProfiler off-target kinase profiling; format: biochemical; conditions: 10 μM, ATP near Km
T18 construct: purchased Millipore, Inc. (KinaseProfiler service)
Description: as §1

NEK11 = target: T19, NEK11 (Homo sapiens, UniProt Q8NG66); assay: KinaseProfiler off-target kinase profiling; format: biochemical; conditions: 10 μM, ATP near Km
T19 construct: purchased Millipore, Inc. (KinaseProfiler service)
Description: as §1

Flt3 = target: T20, Flt3 (Homo sapiens, UniProt P36888); assay: KinaseProfiler off-target kinase profiling; format: biochemical; conditions: 10 μM, ATP near Km
T20 construct: purchased Millipore, Inc. (KinaseProfiler service)
Description: as §1

Lck = target: T21, Lck (Homo sapiens, UniProt P06239); assay: KinaseProfiler off-target kinase profiling; format: biochemical; conditions: 10 μM, ATP near Km
T21 construct: purchased Millipore, Inc. (KinaseProfiler service)
Description: as §1

Rsk2 = target: T22, Rsk2 (Homo sapiens, UniProt P51812); assay: KinaseProfiler off-target kinase profiling; format: biochemical; conditions: 10 μM, ATP near Km
T22 construct: purchased Millipore (KinaseProfiler service)
Description: as §1

CAMK1 = target: T23, CAMK1 (Homo sapiens, UniProt Q14012); assay: KinaseProfiler off-target kinase profiling; format: biochemical; conditions: 10 μM, ATP near Km
T23 construct: purchased Millipore, Inc. (KinaseProfiler service)
Description: as §1

Pim-1 = target: T24, Pim-1 (Homo sapiens, UniProt P11309); assay: KinaseProfiler off-target kinase profiling; format: biochemical; conditions: 10 μM, ATP near Km
T24 construct: purchased Millipore, Inc. (KinaseProfiler service)
Description: as §1

SRPK2 = target: T25, SRPK2 (Homo sapiens, UniProt P78362); assay: KinaseProfiler off-target kinase profiling; format: biochemical; conditions: 10 μM, ATP near Km
T25 construct: purchased Millipore, Inc. (KinaseProfiler service)
Description: as §1

CAMK4 = target: T26, CAMK4 (Homo sapiens, UniProt Q16566); assay: KinaseProfiler off-target kinase profiling; format: biochemical; conditions: 10 μM, ATP near Km
T26 construct: purchased Millipore, Inc. (KinaseProfiler service)
Description: as §1

FGFR4 = target: T27, FGFR4 (Homo sapiens, UniProt P22455); assay: KinaseProfiler off-target kinase profiling; format: biochemical; conditions: 10 μM, ATP near Km
T27 construct: purchased Millipore, Inc. (KinaseProfiler service)
Description: as §1

PAK2 = target: T28, PAK2 (Homo sapiens, UniProt Q13177); assay: KinaseProfiler off-target kinase profiling; format: biochemical; conditions: 10 μM, ATP near Km
T28 construct: purchased Millipore, Inc. (KinaseProfiler service)
Description: as §1

GSK3beta = target: T29, GSK3beta (Homo sapiens, UniProt P49841); assay: KinaseProfiler off-target kinase profiling; format: biochemical; conditions: 10 μM, ATP near Km
T29 construct: purchased Millipore, Inc. (KinaseProfiler service)
Description: as §1

LOK = target: T30, LOK (Homo sapiens, UniProt O94804); assay: KinaseProfiler off-target kinase profiling; format: biochemical; conditions: 10 μM, ATP near Km
T30 construct: purchased Millipore, Inc. (KinaseProfiler service)
Description: as §1

NEK6 = target: T31, NEK6 (Homo sapiens, UniProt Q9HC98); assay: KinaseProfiler off-target kinase profiling; format: biochemical; conditions: 10 μM, ATP near Km
T31 construct: purchased Millipore, Inc. (KinaseProfiler service)
Description: as §1

SGK2 = target: T32, SGK2 (Homo sapiens, UniProt Q9HBY8); assay: KinaseProfiler off-target kinase profiling; format: biochemical; conditions: 10 μM, ATP near Km
T32 construct: purchased Millipore, Inc. (KinaseProfiler service)
Description: as §1

[1] = target: T33, His-tagged recombinant human TrkA (Homo sapiens, UniProt P04629); assay: TrkA LanthaScreen Eu Kinase Binding Assay; conditions: averaged IC50 values; read-out: TrkA enzyme IC50
T33 construct: 6HIS tagged cytoplasmic domain from Invitrogen, Catalog No. PV3144; purchased Invitrogen PV3144
Description: TrkA binding activity was determined in a TrkA LanthaScreen™ Eu Kinase Binding Assay. 5 nM His-tagged recombinant human TrkA (6HIS tagged cytoplasmic domain from Invitrogen, Catalog No. PV3144) was incubated with 4 nM Alexa-Fluor® Tracer 236 (Invitrogen Cat. No. PV5592), 2 nM biotinylated anti-His (Invitrogen Cat. No. PV6090), and 2 nM europium-labeled Streptavidin (Invitrogen Cat. No. PV5899), in buffer (25 mM MOPS, pH 7.5, 5 mM MgCl2, 0.005% Triton X-100). Three fold serial dilutions of compounds of the invention in DMSO were added to a final percentage of 2% DMSO. After 60-minute incubation at 22° C., the reaction was measured using the EnVision mutlimode plate reader (PerkinElmer) via TR-FRET dual wavelength detection at […]. The percent of control was calculated using a ratiometric emission factor. The IC50 values were determined by fitting a four parameter model to the percent of control data.
Table A provides averaged IC50 values for compounds of the invention when tested in the assay of Example A, where A represents an averaged IC50 value <100 nM; and B represents an averaged IC50 value from 100 to 1,000 nM.

T21 sequence (P06239 whole entry): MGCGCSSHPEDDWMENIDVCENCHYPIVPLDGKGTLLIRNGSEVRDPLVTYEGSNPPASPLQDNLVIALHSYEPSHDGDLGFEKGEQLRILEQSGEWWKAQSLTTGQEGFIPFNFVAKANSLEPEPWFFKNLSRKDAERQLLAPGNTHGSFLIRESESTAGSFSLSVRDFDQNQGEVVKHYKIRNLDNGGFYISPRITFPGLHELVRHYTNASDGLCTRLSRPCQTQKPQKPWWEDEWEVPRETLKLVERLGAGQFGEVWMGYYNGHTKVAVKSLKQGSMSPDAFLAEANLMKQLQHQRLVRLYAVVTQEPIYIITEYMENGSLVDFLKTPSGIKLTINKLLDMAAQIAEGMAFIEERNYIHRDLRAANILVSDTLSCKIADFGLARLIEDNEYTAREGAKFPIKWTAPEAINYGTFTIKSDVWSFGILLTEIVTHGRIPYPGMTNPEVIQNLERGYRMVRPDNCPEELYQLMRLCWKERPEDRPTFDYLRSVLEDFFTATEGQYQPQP
T14 sequence (P11362 22-822): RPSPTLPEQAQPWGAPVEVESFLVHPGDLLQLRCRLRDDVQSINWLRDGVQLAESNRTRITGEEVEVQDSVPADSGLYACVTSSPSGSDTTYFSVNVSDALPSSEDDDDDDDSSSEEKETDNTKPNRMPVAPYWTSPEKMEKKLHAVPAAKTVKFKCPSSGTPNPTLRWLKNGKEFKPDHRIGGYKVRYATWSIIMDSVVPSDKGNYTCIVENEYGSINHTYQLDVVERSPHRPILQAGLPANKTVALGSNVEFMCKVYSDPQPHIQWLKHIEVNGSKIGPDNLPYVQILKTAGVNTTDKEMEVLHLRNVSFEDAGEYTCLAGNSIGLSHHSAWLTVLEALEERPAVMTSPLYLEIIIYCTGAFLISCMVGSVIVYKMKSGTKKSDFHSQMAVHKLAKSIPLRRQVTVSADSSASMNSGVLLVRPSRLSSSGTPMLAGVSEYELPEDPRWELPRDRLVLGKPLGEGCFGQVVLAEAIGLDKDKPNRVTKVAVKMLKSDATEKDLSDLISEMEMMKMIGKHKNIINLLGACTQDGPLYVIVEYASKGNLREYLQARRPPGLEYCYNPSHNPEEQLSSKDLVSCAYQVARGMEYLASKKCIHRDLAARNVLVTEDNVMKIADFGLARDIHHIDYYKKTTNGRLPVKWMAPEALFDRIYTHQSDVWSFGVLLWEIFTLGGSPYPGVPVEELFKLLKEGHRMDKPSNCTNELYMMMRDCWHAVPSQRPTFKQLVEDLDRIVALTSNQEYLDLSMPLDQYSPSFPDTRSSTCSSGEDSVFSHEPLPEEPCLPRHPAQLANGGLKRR
T16 sequence (P48730 whole entry): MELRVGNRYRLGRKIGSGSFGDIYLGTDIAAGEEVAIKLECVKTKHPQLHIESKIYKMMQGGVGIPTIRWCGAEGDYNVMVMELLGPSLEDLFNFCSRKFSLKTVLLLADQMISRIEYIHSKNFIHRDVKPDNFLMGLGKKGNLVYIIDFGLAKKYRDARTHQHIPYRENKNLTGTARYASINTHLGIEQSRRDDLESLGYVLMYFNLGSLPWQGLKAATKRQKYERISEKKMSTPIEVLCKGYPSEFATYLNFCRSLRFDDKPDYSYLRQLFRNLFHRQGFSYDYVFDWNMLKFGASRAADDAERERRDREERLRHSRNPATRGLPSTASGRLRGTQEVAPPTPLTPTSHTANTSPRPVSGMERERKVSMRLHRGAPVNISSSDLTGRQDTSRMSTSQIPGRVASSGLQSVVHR
T27 sequence (P22455 22-802): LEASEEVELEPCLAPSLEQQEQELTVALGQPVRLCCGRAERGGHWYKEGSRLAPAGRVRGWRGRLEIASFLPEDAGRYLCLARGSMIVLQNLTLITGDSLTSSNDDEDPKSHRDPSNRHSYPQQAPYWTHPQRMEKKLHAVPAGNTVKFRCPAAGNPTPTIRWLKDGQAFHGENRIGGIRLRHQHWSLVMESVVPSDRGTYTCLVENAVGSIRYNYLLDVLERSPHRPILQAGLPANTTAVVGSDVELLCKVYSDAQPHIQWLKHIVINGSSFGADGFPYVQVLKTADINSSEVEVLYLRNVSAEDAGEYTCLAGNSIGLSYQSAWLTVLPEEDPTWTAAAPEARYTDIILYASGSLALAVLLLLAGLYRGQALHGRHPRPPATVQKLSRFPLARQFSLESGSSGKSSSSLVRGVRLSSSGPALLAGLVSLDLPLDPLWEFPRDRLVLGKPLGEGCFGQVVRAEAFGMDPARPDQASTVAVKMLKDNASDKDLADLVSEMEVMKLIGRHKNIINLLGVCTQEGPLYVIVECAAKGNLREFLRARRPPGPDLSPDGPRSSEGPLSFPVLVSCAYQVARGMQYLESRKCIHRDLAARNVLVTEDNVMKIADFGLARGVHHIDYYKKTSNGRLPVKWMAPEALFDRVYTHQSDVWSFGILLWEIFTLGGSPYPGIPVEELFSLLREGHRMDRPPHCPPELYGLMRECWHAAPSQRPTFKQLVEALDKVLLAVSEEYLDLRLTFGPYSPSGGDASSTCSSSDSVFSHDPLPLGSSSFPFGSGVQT
T28 sequence (Q13177 whole entry): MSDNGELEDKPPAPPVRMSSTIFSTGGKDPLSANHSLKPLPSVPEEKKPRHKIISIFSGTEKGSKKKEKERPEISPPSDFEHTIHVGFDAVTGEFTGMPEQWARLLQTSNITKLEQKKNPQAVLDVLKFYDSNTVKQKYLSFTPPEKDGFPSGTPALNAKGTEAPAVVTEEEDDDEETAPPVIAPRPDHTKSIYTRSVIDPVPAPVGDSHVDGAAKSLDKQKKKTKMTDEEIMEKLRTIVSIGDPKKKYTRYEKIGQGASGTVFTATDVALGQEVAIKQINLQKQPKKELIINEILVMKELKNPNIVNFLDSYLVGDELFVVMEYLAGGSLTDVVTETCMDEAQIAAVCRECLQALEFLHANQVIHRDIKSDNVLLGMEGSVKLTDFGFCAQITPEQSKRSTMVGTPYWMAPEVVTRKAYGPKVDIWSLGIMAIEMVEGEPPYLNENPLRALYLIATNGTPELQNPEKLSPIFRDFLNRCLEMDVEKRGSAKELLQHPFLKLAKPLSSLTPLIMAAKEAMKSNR
T29 sequence (P49841 whole entry): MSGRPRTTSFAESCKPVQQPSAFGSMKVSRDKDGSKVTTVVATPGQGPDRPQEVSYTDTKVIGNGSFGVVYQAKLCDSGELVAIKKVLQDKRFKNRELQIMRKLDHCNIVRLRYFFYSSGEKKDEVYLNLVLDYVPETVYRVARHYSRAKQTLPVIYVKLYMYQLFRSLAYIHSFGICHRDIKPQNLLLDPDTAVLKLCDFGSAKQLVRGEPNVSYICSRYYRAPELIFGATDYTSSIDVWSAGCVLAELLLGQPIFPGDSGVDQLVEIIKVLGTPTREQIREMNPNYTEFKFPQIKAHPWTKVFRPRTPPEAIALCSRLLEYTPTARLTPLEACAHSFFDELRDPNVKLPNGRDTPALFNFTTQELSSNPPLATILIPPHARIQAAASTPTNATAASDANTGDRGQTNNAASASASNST
T32 sequence (Q9HBY8 whole entry): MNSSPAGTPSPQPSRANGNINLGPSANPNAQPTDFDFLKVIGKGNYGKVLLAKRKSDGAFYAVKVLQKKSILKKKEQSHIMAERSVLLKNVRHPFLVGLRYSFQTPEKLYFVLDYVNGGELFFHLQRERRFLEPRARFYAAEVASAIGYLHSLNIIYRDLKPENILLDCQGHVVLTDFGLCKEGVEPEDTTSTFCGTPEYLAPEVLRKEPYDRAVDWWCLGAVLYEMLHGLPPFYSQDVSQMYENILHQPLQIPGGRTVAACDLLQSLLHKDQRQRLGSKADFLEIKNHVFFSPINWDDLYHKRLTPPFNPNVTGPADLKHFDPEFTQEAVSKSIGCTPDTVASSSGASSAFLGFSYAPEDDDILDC
T7 sequence (P07947 whole entry): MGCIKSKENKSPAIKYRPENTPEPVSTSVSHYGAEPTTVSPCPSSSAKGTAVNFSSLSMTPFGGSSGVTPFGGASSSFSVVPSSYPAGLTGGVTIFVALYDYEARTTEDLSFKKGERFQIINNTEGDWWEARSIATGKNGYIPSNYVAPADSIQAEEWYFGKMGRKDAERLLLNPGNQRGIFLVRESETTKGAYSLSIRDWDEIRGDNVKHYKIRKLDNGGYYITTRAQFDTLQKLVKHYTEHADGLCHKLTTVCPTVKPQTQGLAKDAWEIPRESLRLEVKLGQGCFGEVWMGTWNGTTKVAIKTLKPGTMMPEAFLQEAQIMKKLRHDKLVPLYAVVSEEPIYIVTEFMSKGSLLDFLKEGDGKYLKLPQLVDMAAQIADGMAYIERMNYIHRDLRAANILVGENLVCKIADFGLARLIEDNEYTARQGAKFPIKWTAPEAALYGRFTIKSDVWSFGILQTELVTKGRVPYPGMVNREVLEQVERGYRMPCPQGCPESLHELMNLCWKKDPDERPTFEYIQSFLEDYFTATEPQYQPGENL
T33 sequence (P04629 440-796 limits assumed): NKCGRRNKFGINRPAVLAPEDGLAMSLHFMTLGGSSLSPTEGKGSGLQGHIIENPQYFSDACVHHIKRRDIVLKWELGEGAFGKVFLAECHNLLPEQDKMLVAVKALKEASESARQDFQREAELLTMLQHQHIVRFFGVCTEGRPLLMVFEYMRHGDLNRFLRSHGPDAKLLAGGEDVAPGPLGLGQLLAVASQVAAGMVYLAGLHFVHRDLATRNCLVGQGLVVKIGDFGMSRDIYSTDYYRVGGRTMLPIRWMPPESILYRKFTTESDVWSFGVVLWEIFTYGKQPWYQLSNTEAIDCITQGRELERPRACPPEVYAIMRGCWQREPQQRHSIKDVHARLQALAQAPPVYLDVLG

- Avg. POC (PKCdelta): 106.5 POC
- Avg. POC (MST2): 107.5 POC
- Avg. POC (PRKG1alpha): 111.5 POC
- Avg. POC (MST1): 89.5 POC
- Avg. POC (VRK2): 117.5 POC
- Avg. POC (CK2alpha2): 104 POC
- Avg. POC (Yes): 109 POC
- Avg. POC (GRK6): 110 POC
- Avg. POC (JAK3): 115 POC
- Avg. POC (ARK5): 104 POC
- Avg. POC (Pim-2): 122.5 POC
- Avg. POC (JNK2alpha2): 107.5 POC
- Avg. POC (CAMK2g): 113 POC
- Avg. POC (FGFR1): 102 POC
- Avg. POC (MAPKAP-K5): 88.5 POC
- Avg. POC (CK1delta): 93 POC
- Avg. POC (STK33): 109.5 POC
- Avg. POC (PKCeta): 105.5 POC
- Avg. POC (NEK11): 109.5 POC
- Avg. POC (Flt3): 110 POC
- Avg. POC (Lck): 135.5 POC
- Avg. POC (Rsk2): 110.5 POC
- Avg. POC (CAMK1): 105.5 POC
- Avg. POC (Pim-1): 105 POC
- Avg. POC (SRPK2): 100 POC
- Avg. POC (CAMK4): 105 POC
- Avg. POC (FGFR4): 90 POC
- Avg. POC (PAK2): 100.5 POC
- Avg. POC (GSK3beta): 129 POC
- Avg. POC (LOK): 108.5 POC
- Avg. POC (NEK6): 92.5 POC
- Avg. POC (SGK2): 105 POC
- IC50 [1]: < 0.1 µM
Compound: COCCN1C[C@@H](NC(=O)Nc2c(-c3ccccc3)nc3c(C)nccn23)[C@H](c2ccc(F)c(F)c2)C1 [Example 20, 1-((3S,4R)-4-(3,4-difluorophenyl)-1-(2-methoxyethyl)pyrrolidin-3-yl)-3-(8-methyl-2-phenylimidazo[1,2-a]pyrazin-3-yl)urea]
